Source: patent US20240124454A1, “TRICYCLIC COMPOUND AND USE THEREOF” (NANJING ZAIMING PHARMACEUTICAL CO., LTD., priority 2020, published 2024)
Like-named read-outs stand apart in the source and are kept apart here.

Assays:
[1] = Pharmacokinetics in Balb/c Nude mice; type: in vivo; conditions: female, mouse, plasma; for bioavailability: Balb/c Nude, vs IV 1 mg/kg; for AUC(0-t): Balb/c Nude mice, read-out: AUC0-24
Protocol: Test Example 9. Determination of Pharmacokinetics of Compounds of Present Application
The pharmacokinetics of the compounds of the present application were determined in mice using the following method.
I. Materials: • Balb/c Nude mice, purchased from Beijing Vital River Laboratory Animal Technology Co., Ltd. • NMP (N-methyl-2-pyrrolidone), Solutol® HS 15 (polyoxyethylenated 12-hydroxystearic acid), and Vitamin E TPGS (D-a-tocopherol-polyethylene glycol 1000 succinate), purchased from Sigma. • Acetonitrile, purchased from Merck (USA).
II. Vehicle preparation: • 10% aqueous VE TPGS solution: 1 g of VE TPGS was dissolved in purified water, and the volume was brought to 10 mL. • 5% NMP+10% Solutol® HS 15+85% water: 0.5 mL of NMP was measured using a pipette, 1 g of Solutol® HS 15 was weighed, and the volume was brought to 10 mL with water.
6 female Balb/c Nude mice (20-30 g, 4-6 weeks) were randomized into 2 groups of 3. Group 1 was administered with 1 mpk (1 mg/kg) test compound by injection at the tail vein (IV), and the vehicle was 5% NMP+10% Solutol® HS 15+85% water. Group 2 was administered with 1 or 3 mpk test compound by oral administration (PO) (see the table below for specific doses), and the vehicle was 5% NMP+10% Solutol® HS 15+85% water or 10% Vitamin E TPGS aqueous solution. Before the experiment, all animals were given free access to food and water. Blood samples of the mice in each group were collected intravenously pre-dose and at 0.083 h (only the intravenous injection group), 0.25 h, 0.5 h, 1 h, 2 h, 4 h, 6 h, 8 h, and 24 h post-dose. The whole blood samples were collected in K2EDTA vacutainers, and the plasma samples were prepared by 5 min of centrifugation (4000 rpm, 4° C.).
10 μL of mouse plasma was added to 150 μL acetonitrile solvent (containing an internal standard) to precipitate the protein. The mixture was vortexed for 0.5 min and centrifuged (14000 rpm) for 5 min. The supernatant was diluted 2-fold with water containing 0.1% (v/v) FA and quantitatively detected on an LC-MS/MS system (AB Sciex Triple Quad 6500+). When the concentration of the sample was measured, quality control samples were also analyzed and a Balb/c Nude mouse plasma standard curve was plotted. For 10× diluted samples, 2 μL of the sample was added to 18 μL of blank plasma. The mixture was vortexed for 0.5 min. Then 300 μL of acetonitrile solvent (containing an internal standard) was added to precipitate the protein. The other steps were the same as those in undiluted samples.

MAT2A = MAT2A (Homo sapiens (Human), UniProt P31153); test: MAT2A biochemical test (inorganic phosphate colorimetric, PiColorLock); conditions: read-out: MAT2A inhibitory Activity IC50
Sequence of MAT2A (P31153 whole entry): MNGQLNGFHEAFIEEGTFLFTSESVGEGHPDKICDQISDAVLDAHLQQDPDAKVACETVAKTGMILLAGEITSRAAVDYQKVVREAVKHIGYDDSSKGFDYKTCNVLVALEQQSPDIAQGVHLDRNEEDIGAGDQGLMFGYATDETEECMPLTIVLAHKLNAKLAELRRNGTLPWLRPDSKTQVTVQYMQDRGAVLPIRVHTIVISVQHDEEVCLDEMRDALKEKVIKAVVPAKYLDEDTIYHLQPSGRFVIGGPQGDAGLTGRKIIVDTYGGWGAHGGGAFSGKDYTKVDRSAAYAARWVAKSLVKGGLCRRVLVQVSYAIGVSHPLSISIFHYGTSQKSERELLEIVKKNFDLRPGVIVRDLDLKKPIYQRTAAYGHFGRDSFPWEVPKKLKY
Method in brief: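 Compounds tested from 10 μM top concentration in 3-fold dilutions, preincubated 120 min at room temperature with MAT2A ([…] final) in Tris/KCl/MgCl2/EDTA/BSA buffer. Reaction started with […] L-methionine and 400 μM ATP, run 90 min at room temperature; phosphate read by PiColorLock after 30 min. IC50 fitted from % inhibition versus no-enzyme and DMSO controls.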

[2] = PO 1 mg/kg, vehicle 5% NMP + 10% Solutol HS 15 + 85% water
[3] = PO 3 mg/kg, vehicle 10% VE TPGS aqueous solution

| SMILES | bioavailability [1, 2] | AUC(0-t) [1, 2] | IC50 (MAT2A; class symbols) | IC50 (MAT2A; numeric values) | bioavailability [1, 3] | AUC(0-t) [1, 3] |
| --- | --- | --- | --- | --- | --- | --- |
| Cn1cnc2c(=O)n(-c3cccnc3C3CC3)c3cc(C(F)(F)F)ccc3c21 (single isomer, unassigned) [Compound 48-P2, 5-(2-cyclopropylpyridin-3-yl)-1-methyl-7-(trifluoromethyl)-1,5-dihydro-4H-imidazo[4,5-c]quinolin-4-one] | ~100% | 24400 ng·h/mL | < 100 nM | 21.4 nM | – | – |
| Cc1ncccc1-n1c(=O)c2ncoc2c2ccc(C(F)(F)F)nc21 [Compound 40, 5-(2-methylpyridin-3-yl)-7-(trifluoromethyl)oxazolo[4,5-c][1,8]naphthyridin-4(5H)-one] | – | – | < 100 nM | 43 nM | – | – |
| Cc1ncccc1-n1c(=O)c2ncn(C)c2c2ccc(C(F)(F)F)cc21 [Compound 45, 1-methyl-5-(2-methylpyridin-3-yl)-7-(trifluoromethyl)-1,5-dihydro-4H-imidazo[4,5-c]quinolin-4-one] | – | – | < 100 nM | 47 nM | – | – |
| O=c1c2ncoc2c2ccc(C(F)(F)F)nc2n1-c1cccnc1C1CC1 (single isomer, unassigned) [Compound 81-P2, 5-(2-cyclopropylpyridin-3-yl)-7-(trifluoromethyl)oxazolo[4,5-c][1,8]naphthyridin-4(5H)-one] | – | – | < 100 nM | 36.2 nM | – | – |
| Cn1cnc2c(=O)n(-c3cccc(F)c3Cl)c3cc(Cl)ccc3c21 [Compound 39, 7-chloro-5-(2-chloro-3-fluorophenyl)-1-methyl-1,5-dihydro-4H-imidazo[4,5-c]quinolin-4-one] | – | – | < 100 nM | 60.4 nM | – | – |
| Cn1cnc2c(=O)n(-c3cccnc3C3CC3)c3cc(Cl)ccc3c21 (single isomer, unassigned) [Compound 49-P2, 7-chloro-5-(2-cyclopropylpyridin-3-yl)-1-methyl-1,5-dihydro-4H-imidazo[4,5-c]quinolin-4-one] | 89.6% | 11300 ng·h/mL | < 100 nM | 18.7 nM | – | – |
| Cn1cnc2c(=O)n(-c3cccc(F)c3Cl)c3nc(C(F)(F)F)ccc3c21 (single isomer, unassigned) [Compound 25-P2, 5-(2-chloro-3-fluorophenyl)-1-methyl-7-(trifluoromethyl)-1,5-dihydro-4H-imidazo[4,5-c][1,8]naphthyridin-4-one] | – | – | < 100 nM | 20.6 nM | ~100% | 30300 ng·h/mL |

Now from value to compound:

| bioavailability [1, 2] | AUC(0-t) [1, 2] | IC50 (MAT2A; class symbols) | IC50 (MAT2A; numeric values) | bioavailability [1, 3] | AUC(0-t) [1, 3] | SMILES |
| --- | --- | --- | --- | --- | --- | --- |
| – | – | < 100 nM | 54.9 nM | – | – | Cc1ncccc1-n1c(=O)c2ncn(C)c2c2ccc(C(F)(F)F)nc21 (atropisomer, axis not shown) [Compound 20, 1-methyl-5-(2-methylpyridin-3-yl)-7-(trifluoromethyl)-1,5-dihydro-4H-imidazo[4,5-c][1,8]naphthyridin-4-one] |
| ~100% | 10500 ng·h/mL | < 100 nM | 20.3 nM | – | – | Cn1cnc2c(=O)n(-c3cccnc3C3CC3)c3nc(C(F)(F)F)ccc3c21 (single isomer, unassigned) [Compound 42-P2, 5-(2-cyclopropylpyridin-3-yl)-1-methyl-7-(trifluoromethyl)-1,5-dihydro-4H-imidazo[4,5-c][1,8]naphthyridin-4-one] |
| ~100% | 10500 ng·h/mL | < 100 nM | 22.3 nM | – | – | Cn1cnc2c(=O)n(-c3cccnc3C(F)(F)F)c3nc(C(F)(F)F)ccc3c21 (single isomer, unassigned) [Compound 41-P2, 1-methyl-7-(trifluoromethyl)-5-(2-(trifluoromethyl)pyridin-3-yl)-1,5-dihydro-4H-imidazo[4,5-c][1,8]naphthyridin-4-one] |
| ~100% | 5840 ng·h/mL | < 100 nM | 48 nM | – | – | Cn1cnc2c(=O)n(-c3cccc(F)c3Cl)c3nc(C(F)(F)F)ccc3c21 (atropisomer, axis not shown) [Compound 25, 5-(2-chloro-3-fluorophenyl)-1-methyl-7-(trifluoromethyl)-1,5-dihydro-4H-imidazo[4,5-c][1,8]naphthyridin-4-one] |
